Activity calls are given as the source filed them. The calls are words filed in the database; no cut-off is given here.
Columns and labels:
[1] = biological target: T1, Protein deacetylase HDAC6 (Homo sapiens, UniProt Q9UBN7); test: Inhibition of human recombinant HDAC6 using fluorogenic substrate measured after 30 mins
T1 sequence (Q9UBN7 whole entry): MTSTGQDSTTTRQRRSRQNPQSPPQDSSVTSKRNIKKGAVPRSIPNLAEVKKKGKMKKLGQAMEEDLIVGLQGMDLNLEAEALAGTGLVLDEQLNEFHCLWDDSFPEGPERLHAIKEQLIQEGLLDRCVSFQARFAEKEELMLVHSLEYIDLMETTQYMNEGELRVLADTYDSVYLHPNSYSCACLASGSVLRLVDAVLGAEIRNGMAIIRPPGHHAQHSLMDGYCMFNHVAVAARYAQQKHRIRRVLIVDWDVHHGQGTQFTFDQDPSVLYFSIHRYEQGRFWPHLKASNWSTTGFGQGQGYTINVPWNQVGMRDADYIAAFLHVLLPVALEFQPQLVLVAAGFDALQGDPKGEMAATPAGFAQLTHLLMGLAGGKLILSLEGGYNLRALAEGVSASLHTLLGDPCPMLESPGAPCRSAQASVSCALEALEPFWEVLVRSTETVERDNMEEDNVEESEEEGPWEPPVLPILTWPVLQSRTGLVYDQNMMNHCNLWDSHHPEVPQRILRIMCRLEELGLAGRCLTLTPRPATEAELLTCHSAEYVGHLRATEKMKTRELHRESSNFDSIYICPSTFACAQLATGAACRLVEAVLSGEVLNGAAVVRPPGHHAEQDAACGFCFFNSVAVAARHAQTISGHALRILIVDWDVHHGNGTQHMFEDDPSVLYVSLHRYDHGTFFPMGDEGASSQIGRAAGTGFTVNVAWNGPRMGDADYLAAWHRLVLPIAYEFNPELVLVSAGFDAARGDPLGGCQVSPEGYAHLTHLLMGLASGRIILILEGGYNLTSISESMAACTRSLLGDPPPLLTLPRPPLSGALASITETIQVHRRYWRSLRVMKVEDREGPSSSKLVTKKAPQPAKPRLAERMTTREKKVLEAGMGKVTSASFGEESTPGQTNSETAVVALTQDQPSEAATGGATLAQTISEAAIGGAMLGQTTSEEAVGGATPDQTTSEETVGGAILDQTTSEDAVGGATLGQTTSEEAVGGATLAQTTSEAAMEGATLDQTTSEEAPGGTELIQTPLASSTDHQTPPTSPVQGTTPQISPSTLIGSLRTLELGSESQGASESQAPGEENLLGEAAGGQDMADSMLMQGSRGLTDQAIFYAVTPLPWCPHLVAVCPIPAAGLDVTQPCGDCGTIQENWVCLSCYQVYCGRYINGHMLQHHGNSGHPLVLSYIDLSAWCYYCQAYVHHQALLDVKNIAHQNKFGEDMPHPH

Histone deacetylase 1 = Histone deacetylase 1 (Homo sapiens, UniProt Q13547); test: Inhibition of human recombinant HDAC1 using fluorogenic substrate measured after 30 mins
Sequence of Histone deacetylase 1 (Q13547 whole entry): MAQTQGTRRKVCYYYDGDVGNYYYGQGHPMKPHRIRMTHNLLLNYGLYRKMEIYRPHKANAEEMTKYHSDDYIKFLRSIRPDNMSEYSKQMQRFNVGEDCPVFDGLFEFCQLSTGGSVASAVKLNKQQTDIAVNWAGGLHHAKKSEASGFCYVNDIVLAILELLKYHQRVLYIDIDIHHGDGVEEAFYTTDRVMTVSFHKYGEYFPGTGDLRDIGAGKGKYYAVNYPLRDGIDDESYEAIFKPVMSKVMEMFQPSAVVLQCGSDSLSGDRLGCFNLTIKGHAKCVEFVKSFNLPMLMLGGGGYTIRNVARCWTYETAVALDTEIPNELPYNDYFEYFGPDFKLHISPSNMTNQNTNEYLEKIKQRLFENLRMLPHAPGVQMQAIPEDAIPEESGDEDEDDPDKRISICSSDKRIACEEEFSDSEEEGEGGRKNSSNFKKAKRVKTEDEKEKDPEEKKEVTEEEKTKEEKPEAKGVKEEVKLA

Histone deacetylase 8 = biological target: T2, Histone deacetylase 8 (Homo sapiens, UniProt Q9BY41); test: Inhibition of human recombinant HDAC8 using fluorogenic substrate measured after 30 mins
T2 sequence (Q9BY41 whole entry): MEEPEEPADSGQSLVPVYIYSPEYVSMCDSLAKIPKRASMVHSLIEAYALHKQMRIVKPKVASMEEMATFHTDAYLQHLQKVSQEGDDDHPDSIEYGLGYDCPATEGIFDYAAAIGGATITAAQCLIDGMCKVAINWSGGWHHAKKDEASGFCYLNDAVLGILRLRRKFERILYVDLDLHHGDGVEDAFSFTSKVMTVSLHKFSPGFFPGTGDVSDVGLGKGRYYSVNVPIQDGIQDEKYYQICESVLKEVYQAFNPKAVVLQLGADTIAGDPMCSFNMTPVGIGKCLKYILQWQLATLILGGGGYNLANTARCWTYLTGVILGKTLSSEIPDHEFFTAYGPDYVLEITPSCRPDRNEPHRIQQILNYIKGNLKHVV

Histone deacetylase 11 = biological target: T3, Histone deacetylase 11 (Homo sapiens, UniProt Q96DB2); test: Inhibition of human recombinant HDAC11 using fluorogenic substrate measured after 30 mins
T3 sequence (Q96DB2 whole entry): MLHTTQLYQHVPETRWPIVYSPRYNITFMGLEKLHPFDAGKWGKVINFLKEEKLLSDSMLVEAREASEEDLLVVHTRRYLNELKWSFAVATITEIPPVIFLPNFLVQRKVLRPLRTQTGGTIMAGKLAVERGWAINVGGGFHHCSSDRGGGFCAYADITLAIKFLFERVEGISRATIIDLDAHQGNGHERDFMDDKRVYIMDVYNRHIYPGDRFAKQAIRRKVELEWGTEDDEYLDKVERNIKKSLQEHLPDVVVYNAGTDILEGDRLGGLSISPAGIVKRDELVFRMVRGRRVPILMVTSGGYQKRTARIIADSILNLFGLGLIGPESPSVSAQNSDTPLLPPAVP

Histone deacetylase 2 = Histone deacetylase 2 (Homo sapiens, UniProt Q92769); test: Inhibition of human recombinant HDAC2 using fluorogenic substrate measured after 30 mins
Sequence of Histone deacetylase 2 (Q92769 whole entry): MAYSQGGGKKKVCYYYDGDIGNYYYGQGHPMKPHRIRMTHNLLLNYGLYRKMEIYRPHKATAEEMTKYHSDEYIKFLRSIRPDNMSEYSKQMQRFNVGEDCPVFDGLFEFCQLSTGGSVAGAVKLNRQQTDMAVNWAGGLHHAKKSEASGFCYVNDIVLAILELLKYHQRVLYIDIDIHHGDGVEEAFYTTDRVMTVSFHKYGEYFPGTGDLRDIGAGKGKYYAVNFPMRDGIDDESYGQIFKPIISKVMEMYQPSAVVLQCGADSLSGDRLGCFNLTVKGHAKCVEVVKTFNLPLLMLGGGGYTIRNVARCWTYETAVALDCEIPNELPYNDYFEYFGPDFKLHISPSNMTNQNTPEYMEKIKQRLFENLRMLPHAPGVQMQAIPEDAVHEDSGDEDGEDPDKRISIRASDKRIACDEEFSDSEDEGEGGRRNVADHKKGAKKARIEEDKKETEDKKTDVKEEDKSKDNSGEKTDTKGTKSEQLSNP

Histone deacetylase 4 = Histone deacetylase 4 (Homo sapiens, UniProt P56524); test: Inhibition of human recombinant HDAC4 using fluorogenic substrate measured after 30 mins
Sequence of Histone deacetylase 4 (P56524 whole entry): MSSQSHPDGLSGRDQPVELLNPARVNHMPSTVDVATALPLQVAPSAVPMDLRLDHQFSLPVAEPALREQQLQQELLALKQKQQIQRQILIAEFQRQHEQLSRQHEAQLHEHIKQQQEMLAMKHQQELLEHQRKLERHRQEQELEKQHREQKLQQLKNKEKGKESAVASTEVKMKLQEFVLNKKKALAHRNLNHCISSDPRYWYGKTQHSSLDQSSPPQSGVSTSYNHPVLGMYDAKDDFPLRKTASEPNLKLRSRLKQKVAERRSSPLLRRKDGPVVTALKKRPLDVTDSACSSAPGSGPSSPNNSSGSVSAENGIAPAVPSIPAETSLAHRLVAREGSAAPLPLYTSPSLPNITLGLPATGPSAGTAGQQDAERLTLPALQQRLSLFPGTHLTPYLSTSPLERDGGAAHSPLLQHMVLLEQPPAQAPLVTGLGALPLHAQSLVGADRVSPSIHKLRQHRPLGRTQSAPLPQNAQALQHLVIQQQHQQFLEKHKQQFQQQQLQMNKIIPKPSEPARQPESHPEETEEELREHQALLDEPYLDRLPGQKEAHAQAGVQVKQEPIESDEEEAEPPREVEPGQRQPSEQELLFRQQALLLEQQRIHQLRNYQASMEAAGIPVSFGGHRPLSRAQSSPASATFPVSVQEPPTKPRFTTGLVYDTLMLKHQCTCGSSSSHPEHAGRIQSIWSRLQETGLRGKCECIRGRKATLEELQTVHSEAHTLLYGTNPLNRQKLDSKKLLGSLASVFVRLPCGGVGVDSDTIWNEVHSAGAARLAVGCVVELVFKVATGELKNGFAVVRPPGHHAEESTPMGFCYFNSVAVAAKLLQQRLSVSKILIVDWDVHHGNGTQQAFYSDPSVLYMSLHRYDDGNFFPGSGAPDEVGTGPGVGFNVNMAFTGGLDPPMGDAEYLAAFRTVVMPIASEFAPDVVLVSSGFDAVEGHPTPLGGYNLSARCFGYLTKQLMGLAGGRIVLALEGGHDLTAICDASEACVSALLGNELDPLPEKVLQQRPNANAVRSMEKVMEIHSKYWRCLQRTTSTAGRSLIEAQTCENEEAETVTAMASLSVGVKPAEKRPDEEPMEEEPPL

[2] = Cytotoxicity against human SH-SY5Y cells assessed as cell viability measured after 36 hrs by CCK8 assay
[3] = biological target: T4, Protein deacetylase HDAC6 (Homo sapiens) (UniProt Q9UBN7); test: Inhibition of HDAC6 in human SH-SY5Y cells assessed as acetylated histone H3 level at 0.3 to 3 uM measured after 24 hrs by immunoblotting analysis; assay type: cell-based; conditions: dose 0.3-3 µM
T4 sequence (whole entry): T1 sequence (Q9UBN7 whole entry)

[4] = biological target: T4, Protein deacetylase HDAC6 (Homo sapiens); test: Inhibition of HDAC6 in human HeLa cells assessed as acetylated histone H3 level at 0.3 to 3 uM measured after 24 hrs by immunoblotting analysis; assay type: cell-based; conditions: dose 0.3-3 µM

| Compound | IC50 [1] [nM] | IC50 (Histone deacetylase 1) [nM] | other results |
| --- | --- | --- | --- |
| O=C(NO)c1ccc(Cn2cncn2)cc1 | 91.8 | 1440 | – |
| O=C(NO)c1ccc(Cn2cnc(-c3ccccc3F)n2)c(F)c1 | 7.09 | 299 | IC50 (Histone deacetylase 8): 813 nM; IC50 (Histone deacetylase 11): 8090 nM; IC50 (Histone deacetylase 2): 509 nM; IC50 (Histone deacetylase 4): 4040 nM; IC50 at 36 h [2]: 8210 nM; inhibition [3]: Active; inhibition [4]: Active |
| O=C(NO)c1cccc(Cn2cnc(-c3ccccc3)n2)c1 | 1300 | 38800 | – |
| O=C(NO)c1ccc(Cn2cnc(-c3ccccc3)n2)nc1 | 20.6 | 431 | – |
| O=C(NO)c1ccc(Cn2cnc(-c3cccc(-c4ccccc4)c3)n2)cc1 | 11.1 | 150 | – |
| O=C(NO)c1ccc(Cn2cnc(-c3ccc(F)cc3)n2)cc1 | 12.6 | 269 | – |
| O=C(NO)c1ccc(Cn2cnc(-c3cccc(Cl)c3)n2)cc1 | 6.4 | 111 | – |
| O=C(NO)c1ccc(Cn2cnc(Br)n2)cc1 | 44.1 | 926 | – |
| O=C(NO)c1ccc(Cn2cnc(-c3cccc(OC(F)(F)F)c3)n2)cc1 | 13.3 | 212 | – |
| O=C(NO)c1ccc(Cn2cnc(-c3ccccc3)n2)cc1 | 9.11 | 206 | – |
| O=C(NO)c1cccc(Cn2ncnc2-c2ccccc2)c1 | 152 | 18300 | – |
| COc1cccc(-c2ncn(Cc3ccc(C(=O)NO)cc3)n2)c1 | 11.5 | 167 | – |
| O=C(NO)c1ccc(Cn2cnc(-c3cccc(O)c3)n2)cc1 | 12.3 | 197 | – |
| O=C(NO)c1ccc(Cn2cnc(-c3ccccc3)n2)c(F)c1 | 12.4 | 455 | – |
| O=C(NO)c1ccc(Cn2cnc(-c3cccs3)n2)cc1 | 10.4 | 249 | – |
| O=C(NO)c1ccc(Cn2cnc(-c3c(F)cccc3F)n2)cc1 | 14.3 | 369 | – |
| O=C(NO)c1ccc(Cn2ncnc2-c2cccs2)cc1 | 18.3 | 427 | – |
| O=C(NO)c1ccc(Cn2cnc(-c3ccccc3F)n2)cc1 | 10 | 256 | – |
| O=C(NO)c1ccc(Cn2ncnc2-c2ccccc2)cc1 | 16.9 | 341 | – |
| O=C(NO)c1ccc(Cn2ncnc2-c2ccccc2F)cc1 | 11.8 | 605 | – |
| O=C(NO)c1cccc(Cn2cncn2)c1 | 11400 | 23200 | – |
| Cc1cccc(-c2ncn(Cc3ccc(C(=O)NO)cc3)n2)c1 | 14.7 | 168 | – |
| O=C(NO)c1ccc(Cn2cnc(-c3cc(F)cc(F)c3)n2)cc1 | 19.6 | 256 | – |
| O=C(NO)c1ccc(Cn2cnc(-c3cccnc3)n2)cc1 | 27.9 | 356 | – |
| O=C(NO)c1ccc(Cn2cnc(-c3cccc(C(F)(F)F)c3)n2)cc1 | 4.57 | 122 | – |
| O=C(NO)c1ccc(Cn2cnc(-c3cccc(F)c3)n2)cc1 | 8.73 | 268 | – |

Reference: ChEMBL document CHEMBL5223156, “Synthesis and biological evaluation of novel N-benzyltriazolyl-hydroxamate derivatives as selective histone deacetylase 6 inhibitors” (Bioorg Med Chem, 2023)
